In patent US9980943B2, “Methods of treating muscular dystrophy” (BOARD OF REGENTS OF THE NEVADA SYSTEM OF HIGHER EDUCATION, …, priority 2013, dated 2018):

Columns and labels:
Assay type in all cases: cell-based, mouse
[1] = system: β-galactosidase in CMV-LacZ C2C12 myotubes; test: CMV-LacZ secondary screen in C2C12 myotubes (β-Gal stabilizing assay); settings: for fold induction at 5 µM / fold induction at 10 µM / fold induction at 20 µM / fold induction at 40 µM: Mus musculus; for fold induction at 5 µM: C2C12, read-out: CMV-LACZ in Myotubes, signal relative to DMSO, 5 uM; for fold induction at 5 µM / fold induction at 10 µM / fold induction at 20 µM / fold induction at 40 µM / CMV-LACZ in Myotubes, signal relative to DMSO: C2C12 CMV-LacZ myotubes, fold relative to DMSO; for fold induction at 10 µM: C2C12, read-out: CMV-LACZ in Myotubes, signal relative to DMSO, 10 uM; for fold induction at 20 µM: C2C12, read-out: CMV-LACZ in Myotubes, signal relative to DMSO, 20 uM; for fold induction at 40 µM: C2C12, read-out: CMV-LACZ in Myotubes, signal relative to DMSO, 40 uM; for CMV-LACZ in Myotubes (β-galactosidase activity relative to DMSO): CMV-LacZ C2C12 myotubes, 96-well format
In short: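 Stable CMV-LacZ C2C12 clone; six-point curve 0.5–40 μM; duplicates.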

[2] = system: α7 integrin (LacZ reporter in α7+/LacZ myotubes); test: Myotube α7 integrin FDG assay (Burkin assay in myotubes, 96-well); settings: myotubes; for fold induction at 0.5 µM / fold induction at 1 µM / fold induction at 5 µM / fold induction at 10 µM / fold induction at 20 µM / fold induction at 40 µM: Mus musculus, Myotube, read-out: Burkin Assay in Myotubes, α7 integrin LacZ reporter signal relative to DMSO
[3] = system: α7 integrin (LacZ reporter in α7βgal+/− myoblasts); test: Myoblast α7+/LacZ integrin FDG assay (Burkin assay in myoblasts, 96-well); settings: α7+/LacZ myoblasts, 96-well; for fold induction at 0.5 µM / fold induction at 1 µM / fold induction at 5 µM / fold induction at 10 µM / fold induction at 20 µM / fold induction at 40 µM: Mus musculus, Myoblast, 48 h, read-out: Burkin Assay in Myoblasts, signal relative to DMSO

| Structure (SMILES) | CMV-LACZ in Myotubes, signal relative to DMSO ([1]; 5 uM) | CMV-LACZ in Myotubes, signal relative to DMSO ([1]; 10 uM) | CMV-LACZ in Myotubes, signal relative to DMSO ([1]; 20 uM) | CMV-LACZ in Myotubes, signal relative to DMSO ([1]; 40 uM) | Burkin Assay in Myotubes (signal relative to DMSO) ([2]; 0.5 uM) | Burkin Assay in Myotubes (signal relative to DMSO) ([2]; 1 uM) | Burkin Assay in Myotubes (signal relative to DMSO) ([2]; 5 uM) | Burkin Assay in Myotubes (signal relative to DMSO) ([2]; 10 uM) | Burkin Assay in Myotubes (signal relative to DMSO) ([2]; 20 uM) | Burkin Assay in Myotubes (signal relative to DMSO) ([2]; 40 uM) | Burkin Assay in Myoblasts, value relative to DMSO ([3]; 0.5 uM) | Burkin Assay in Myoblasts, value relative to DMSO ([3]; 1 uM) | Burkin Assay in Myoblasts, value relative to DMSO ([3]; 5 uM) | Burkin Assay in Myoblasts, value relative to DMSO ([3]; 10 uM) | Burkin Assay in Myoblasts, value relative to DMSO ([3]; 20 uM) | Burkin Assay in Myoblasts, value relative to DMSO ([3]; 40 uM) | other results |
| --- | --- | --- | --- | --- | --- | --- | --- | --- | --- | --- | --- | --- | --- | --- | --- | --- | --- |
| Nc1nccc(-c2ccc(-n3cnc4ccccc43)cc2)n1 [MLS000763405-01] |  |  |  |  |  |  |  |  |  |  |  |  |  |  |  |  | fold induction at 5 µM [1]: 1.05; fold induction at 10 µM [1]: 0.876; fold induction at 20 µM [1]: 0.824; fold induction at 40 µM [1]: 0.802; fold induction at 0.5 µM ([2]; 0.5 uM): 1.03; fold induction at 1 µM ([2]; 1 uM): 1.14; fold induction at 5 µM ([2]; 5 uM): 1.21; fold induction at 10 µM ([2]; 10 uM): 1.11; fold induction at 20 µM ([2]; 20 uM): 1.45; fold induction at 40 µM ([2]; 40 uM): 1.38; fold induction at 0.5 µM ([3]; 0.5 uM): 0.961; fold induction at 1 µM ([3]; 1 uM): 1.03; fold induction at 5 µM ([3]; 5 uM): 1.46; fold induction at 10 µM ([3]; 10 uM): 1.53; fold induction at 20 µM ([3]; 20 uM): 1.47; fold induction at 40 µM ([3]; 40 uM): 1.08 |
| COc1ccc(-n2c(C)c(C(C)=O)c3cc(OC(C)=O)ccc32)cc1 [MLS001212998-01] |  |  |  |  |  |  |  |  |  |  |  |  |  |  |  |  | fold induction at 5 µM [1]: 0.78; fold induction at 10 µM [1]: 0.908; fold induction at 20 µM [1]: 0.972; fold induction at 40 µM [1]: 0.783; fold induction at 0.5 µM ([2]; 0.5 uM): 1.14; fold induction at 1 µM ([2]; 1 uM): 1.1; fold induction at 5 µM ([2]; 5 uM): 1.46; fold induction at 10 µM ([2]; 10 uM): 1.45; fold induction at 20 µM ([2]; 20 uM): 1.45; fold induction at 40 µM ([2]; 40 uM): 1.05; fold induction at 0.5 µM ([3]; 0.5 uM): 1.19; fold induction at 1 µM ([3]; 1 uM): 1.2; fold induction at 5 µM ([3]; 5 uM): 1.45; fold induction at 10 µM ([3]; 10 uM): 1.54; fold induction at 20 µM ([3]; 20 uM): 1.36; fold induction at 40 µM ([3]; 40 uM): 1.3 |
| Cc1cc(NC(=O)CN2C(=O)/C(=C/c3ccccc3F)SC2=S)no1 [MLS001219159-01] | 0.9354 | 0.9316 | 0.9636 | 1.023 | 0.861 | 0.9965 | 0.807 | 1.064 | 0.9474 | 0.9507 | 0.9597 | 1.059 | 0.9161 | 0.9644 | 0.9199 | 0.952 |  |
| CNC(=S)N1CCC(NC(=O)C(Cc2ccc(F)cc2)NC(C)=O)CC1 (stereo not shown) [MLS000710130-01] | 0.8144 | 0.8646 | 0.9864 | 0.9336 | 0.9811 | 0.8524 | 0.6183 | 0.6452 | 1.044 | 1.064 | 0.9666 | 1.103 | 1.006 | 1.036 | 0.8326 | 0.8689 |  |
| Cc1cccc(OCc2nc(C#N)c(N3CCCC3)o2)c1 [MLS000332693-01] |  |  |  |  | 1.0441 | 0.9631 | 1.092 | 0.9798 | 0.9709 | 0.9252 | 1.04 | 0.9937 | 1.068 | 1.095 | 0.895 | 0.9225 | CMV-LACZ in Myotubes (β-galactosidase activity relative to DMSO) ([1]; 5 uM): 1.244; CMV-LACZ in Myotubes (β-galactosidase activity relative to DMSO) ([1]; 10 uM): 0.9794; CMV-LACZ in Myotubes (β-galactosidase activity relative to DMSO) ([1]; 20 uM): 0.8804; CMV-LACZ in Myotubes (β-galactosidase activity relative to DMSO) ([1]; 40 uM): 0.9304 |
| O=C(O)c1cc(-c2ccccc2Cl)n(-c2cccc(Cl)c2)n1 [MLS001166325-01] | 0.7726 | 0.9795 | 0.8969 | 0.8785 | 1.057 | 1.049 | 1.112 | 1.065 | 0.9593 | 1.0054 | 1.017 | 0.9268 | 0.9487 | 0.9453 | 0.9772 | 1.032 |  |
| COc1ccccc1N(C(=O)CNC(=O)c1ccco1)C(C(=O)NC1CCCCC1)c1ccncc1 (stereo not shown) [MLS001220669-01] | 0.8274 | 0.7701 | 1.0114 | 1 | 0.9722 | 0.978 | 1.0117 | 1.038 | 1.003 | 1.011 | 1 | 0.9426 | 0.9016 | 0.9605 | 0.8701 | 0.7613 |  |
